Experimental data: patent publication US20210046137A1, “ANTIMICROBIAL PHOTOSENSITIZER COMPOSITION AND METHOD” (ToeFX Inc., priority 2018, published 2021)

Experiments:
[1] = tested on: C. albicans; conditions: low curcumin concentrations, planktonic and biofilm form; cited from earlier work
[2] = tested on: Trichophyton rubrum; experiment: Methylene blue phototherapy of infected nail pieces, ex vivo; format: cell-based; set-up: key to Fungal growth on nail pieces after treatment: “G” indicates growth; “N” indicates no growth
Method: Sterilized nail pieces were placed on fresh T.rubrum lawn to be infected for at least 10 days with dorsal side upwards. […] Control was carrier solution with no Methylene blue. […] The nails were exposed to red light (640 nm, 9 W—3 LED lights, 3 W each) for 30 min. Amount of viable fungal colonies of Trichophyton rubrum after treatment relative to control was observed using microscope and once visual continued to be monitored with the naked eye. Results are shown in Table 2, where “G” indicates growth and “N” indicates no growth. […] After 5 days mycelium growth was found for the 0.0625% and 0.03125% treatments. After 6 days of the treatment mycelium was found for the 0.125% treatments. […] Meaning that there is a need for a secondary treatment or alternative treatment in order to obtain prolonged inhibition of re-growth.

COc1cc(/C=C/C(=O)CC(=O)/C=C/c2ccc(O)c(OC)c2)ccc1O [curcumin, diferuloylmethane]
photoinactivating C. albicans [1]: highly effective

CN(C)c1ccc2nc3ccc(=[N+](C)C)cc-3sc2c1 [MB, Methylene blue]
Fungal growth on nail pieces after treatment ([2]; 0.03% MB in carrier, red light 640 nm 30 min, Day 3): N | Fungal growth on nail pieces after treatment ([2]; 0.03% MB in carrier, red light 640 nm 30 min, Day 4): N | Fungal growth on nail pieces after treatment ([2]; 0.03% MB in carrier, red light 640 nm 30 min, Day 6): G | Fungal growth on nail pieces after treatment ([2]; 0.03% MB in carrier, red light 640 nm 30 min, Day 7): G | Fungal growth on nail pieces after treatment ([2]; 0.03% MB in carrier, red light 640 nm 30 min, Day 8): G | Fungal growth on nail pieces after treatment ([2]; 0.03% MB in carrier, red light 640 nm 30 min, Day 9): G | Fungal growth on nail pieces after treatment ([2]; 0.03% MB in carrier, red light 640 nm 30 min, Day 10): G | Fungal growth on nail pieces after treatment ([2]; 0.03% MB in carrier, red light 640 nm 30 min, Day 12): G | Fungal growth on nail pieces after treatment ([2]; 0.03% MB in carrier, red light 640 nm 30 min, Day 13): G | Days after treatment at which mycelium growth was found ([2]; 0.03125% MB, red light 640 nm 30 min): 5 days | Fungal growth on nail pieces after treatment ([2]; 0.0625% MB in carrier, red light 640 nm 30 min, Day 3): N | Fungal growth on nail pieces after treatment ([2]; 0.0625% MB in carrier, red light 640 nm 30 min, Day 4): N | Fungal growth on nail pieces after treatment ([2]; 0.0625% MB in carrier, red light 640 nm 30 min, Day 6): G | Fungal growth on nail pieces after treatment ([2]; 0.0625% MB in carrier, red light 640 nm 30 min, Day 7): G | Fungal growth on nail pieces after treatment ([2]; 0.0625% MB in carrier, red light 640 nm 30 min, Day 8): G | Fungal growth on nail pieces after treatment ([2]; 0.0625% MB in carrier, red light 640 nm 30 min, Day 9): G | Fungal growth on nail pieces after treatment ([2]; 0.0625% MB in carrier, red light 640 nm 30 min, Day 10): G | Fungal growth on nail pieces after treatment ([2]; 0.0625% MB in carrier, red light 640 nm 30 min, Day 12): G | Fungal growth on nail pieces after treatment ([2]; 0.0625% MB in carrier, red light 640 nm 30 min, Day 13): G | Days after treatment at which mycelium growth was found ([2]; 0.0625% MB, red light 640 nm 30 min): 5 days | Fungal growth on nail pieces after treatment ([2]; 0.125% MB in carrier, red light 640 nm 30 min, Day 3): N | Fungal growth on nail pieces after treatment ([2]; 0.125% MB in carrier, red light 640 nm 30 min, Day 4): N | Fungal growth on nail pieces after treatment ([2]; 0.125% MB in carrier, red light 640 nm 30 min, Day 6): N | Fungal growth on nail pieces after treatment ([2]; 0.125% MB in carrier, red light 640 nm 30 min, Day 7): G | Fungal growth on nail pieces after treatment ([2]; 0.125% MB in carrier, red light 640 nm 30 min, Day 8): G | Fungal growth on nail pieces after treatment ([2]; 0.125% MB in carrier, red light 640 nm 30 min, Day 9): G | Fungal growth on nail pieces after treatment ([2]; 0.125% MB in carrier, red light 640 nm 30 min, Day 10): G | Fungal growth on nail pieces after treatment ([2]; 0.125% MB in carrier, red light 640 nm 30 min, Day 12): G | Fungal growth on nail pieces after treatment ([2]; 0.125% MB in carrier, red light 640 nm 30 min, Day 13): G | Days after treatment at which mycelium growth was found ([2]; 0.125% MB, red light 640 nm 30 min): 6 days | Fungal growth on nail pieces after treatment ([2]; 0.25% MB in carrier, red light 640 nm 30 min, Day 3): N | Fungal growth on nail pieces after treatment ([2]; 0.25% MB in carrier, red light 640 nm 30 min, Day 4): N | Fungal growth on nail pieces after treatment ([2]; 0.25% MB in carrier, red light 640 nm 30 min, Day 6): N | Fungal growth on nail pieces after treatment ([2]; 0.25% MB in carrier, red light 640 nm 30 min, Day 7): N | Fungal growth on nail pieces after treatment ([2]; 0.25% MB in carrier, red light 640 nm 30 min, Day 8): N | Fungal growth on nail pieces after treatment ([2]; 0.25% MB in carrier, red light 640 nm 30 min, Day 9): N | Fungal growth on nail pieces after treatment ([2]; 0.25% MB in carrier, red light 640 nm 30 min, Day 10): N | Fungal growth on nail pieces after treatment ([2]; 0.25% MB in carrier, red light 640 nm 30 min, Day 12): N | Fungal growth on nail pieces after treatment ([2]; 0.25% MB in carrier, red light 640 nm 30 min, Day 13): G | Days after treatment at which growth was found ([2]; 0.25% MB, red light 640 nm 30 min): 12 days | Effect on fungus growth ([2]; MB alone (without light), separate experiment): did not kill nor inhibit
